# Measurements reported in patent US20240360142A1, “Multitargeting Agents For The Potential Treatment of Dementia With Lewy Bodies, Parkinson's Disease, and Alzheimer Disease With Lewy Bodies” (Duquesne University of The Holy Spirit, priority 2023, published 2024).
# Values joined by “and” are separate entries in the source; they are usually repeats but may differ in a detail not shown here. Equal values may be shown once. “Also recorded” adds a separate entry of the source. Read-outs that look alike come from different tables or passages of the source.
# Tests used:
# [1] = test system: α-tubulin (detyrosinated, tyrosinated, acetylated); test: Post-translational markers of microtubule stability in primary hippocampal cultures (immunoblotting); assay type: cell-based, rat; settings: 5 nM nocodazole, in the presence of fibrils
# [2] = test system: primary hippocampal cultures; test: Viability / toxicity in primary hippocampal cultures; assay type: cell-based
# Description: Thresholds were kept uniform across individual experiments.
# [3] = test system: βIII-tubulin+ structures in primary hippocampal neurons; test: Nocodazole shock treatment followed by cold methanol fixation, βIII-tubulin staining; assay type: cell-based, rat; settings: AG161-47 8 μM; nocodazole 50 nM and 5 μM
# Experimental: For cold methanol fixation, primary hippocampal cultures plated on glass slides were exposed to ice-cold methanol (−20° C.) for 15 minutes on DIV 4. […] After immunostaining, coverslips were applied using FluoroMount-G (0100-01, SouthernBiotech).
# The microtubule destabilizer/depolymerizer and kinase inhibitor nocodazole blocks AG161-47 activity: We qualitatively compared AG161-47 with the established microtubule destabilizer/depolymerizer nocodazole (Baas & Black, 1990; Baas et al., 2016; Bates & Eastman, 2017; Kapellos et al., 2016; Koenigsknecht & Landreth, 2004; Kuhn, 1998; Mandrekar et al., 2009; Nakayama et al., 2012; Park et al., 2012), using a nocodazole shock treatment followed by cold methanol fixation in primary hippocampal cultures, as previously described (Ferreira et al., 2018; Warren et al., 2020). Primary hippocampal cultures were treated with vehicle or AG161-47 at 8 μM or nocodazole at 50 nM and 5 μM.
# FYN = FYN (Homo sapiens, UniProt P06241); test: Kinase inhibition, FYN; assay type: biochemical
# Sequence of FYN (P06241 whole entry): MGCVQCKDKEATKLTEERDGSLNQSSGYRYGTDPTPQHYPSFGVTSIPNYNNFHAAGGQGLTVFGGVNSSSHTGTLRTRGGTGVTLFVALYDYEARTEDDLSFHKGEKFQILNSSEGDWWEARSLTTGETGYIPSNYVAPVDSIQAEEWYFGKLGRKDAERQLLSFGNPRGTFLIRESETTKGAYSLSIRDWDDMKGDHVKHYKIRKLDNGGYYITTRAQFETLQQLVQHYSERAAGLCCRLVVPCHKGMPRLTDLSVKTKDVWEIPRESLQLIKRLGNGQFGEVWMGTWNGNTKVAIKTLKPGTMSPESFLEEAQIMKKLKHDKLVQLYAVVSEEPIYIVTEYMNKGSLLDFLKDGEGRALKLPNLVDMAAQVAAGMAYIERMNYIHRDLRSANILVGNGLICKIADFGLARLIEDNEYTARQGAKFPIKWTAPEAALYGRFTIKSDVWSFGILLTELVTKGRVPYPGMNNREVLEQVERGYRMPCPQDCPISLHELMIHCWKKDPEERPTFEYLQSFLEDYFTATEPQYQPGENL
# Description: (§1) Total inhibition of these kinases would be detrimental to neuronal viability.
# GSK3β = GSK3β (Homo sapiens, UniProt P49841); test: Kinase inhibition, GSK3β; assay type: biochemical
# Sequence of GSK3β (P49841 whole entry): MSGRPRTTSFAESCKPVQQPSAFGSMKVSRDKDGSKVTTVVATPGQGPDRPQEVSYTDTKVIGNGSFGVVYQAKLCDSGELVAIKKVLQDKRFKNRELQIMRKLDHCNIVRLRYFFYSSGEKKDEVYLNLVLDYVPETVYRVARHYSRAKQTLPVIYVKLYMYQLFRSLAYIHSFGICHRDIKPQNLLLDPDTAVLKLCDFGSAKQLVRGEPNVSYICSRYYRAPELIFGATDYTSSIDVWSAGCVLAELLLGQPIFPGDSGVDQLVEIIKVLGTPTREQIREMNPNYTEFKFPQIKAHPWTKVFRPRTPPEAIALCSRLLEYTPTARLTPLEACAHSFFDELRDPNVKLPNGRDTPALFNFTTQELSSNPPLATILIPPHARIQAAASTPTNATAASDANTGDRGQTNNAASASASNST
# Description: as §1
# [4] = Protein Binding, Human Plasma; assay type: in vitro ADME; settings: read-out: Protein Binding % Bound (converted)
# Solubility = assay type: physicochemical; settings: simulated gastric fluid; pH 2.0
# [5] = Metabolic Stability, Mouse; assay type: in vitro ADME; settings: for half-life: read-out: Metabolic Stability T1/2
# [6] = Metabolic Stability, Human; assay type: in vitro ADME; settings: for half-life: read-out: Metabolic Stability T1/2
# ABL1 = ABL1 (Homo sapiens, UniProt P00519); test: Kinase inhibition, ABL1; assay type: biochemical
# Sequence of ABL1 (P00519 whole entry): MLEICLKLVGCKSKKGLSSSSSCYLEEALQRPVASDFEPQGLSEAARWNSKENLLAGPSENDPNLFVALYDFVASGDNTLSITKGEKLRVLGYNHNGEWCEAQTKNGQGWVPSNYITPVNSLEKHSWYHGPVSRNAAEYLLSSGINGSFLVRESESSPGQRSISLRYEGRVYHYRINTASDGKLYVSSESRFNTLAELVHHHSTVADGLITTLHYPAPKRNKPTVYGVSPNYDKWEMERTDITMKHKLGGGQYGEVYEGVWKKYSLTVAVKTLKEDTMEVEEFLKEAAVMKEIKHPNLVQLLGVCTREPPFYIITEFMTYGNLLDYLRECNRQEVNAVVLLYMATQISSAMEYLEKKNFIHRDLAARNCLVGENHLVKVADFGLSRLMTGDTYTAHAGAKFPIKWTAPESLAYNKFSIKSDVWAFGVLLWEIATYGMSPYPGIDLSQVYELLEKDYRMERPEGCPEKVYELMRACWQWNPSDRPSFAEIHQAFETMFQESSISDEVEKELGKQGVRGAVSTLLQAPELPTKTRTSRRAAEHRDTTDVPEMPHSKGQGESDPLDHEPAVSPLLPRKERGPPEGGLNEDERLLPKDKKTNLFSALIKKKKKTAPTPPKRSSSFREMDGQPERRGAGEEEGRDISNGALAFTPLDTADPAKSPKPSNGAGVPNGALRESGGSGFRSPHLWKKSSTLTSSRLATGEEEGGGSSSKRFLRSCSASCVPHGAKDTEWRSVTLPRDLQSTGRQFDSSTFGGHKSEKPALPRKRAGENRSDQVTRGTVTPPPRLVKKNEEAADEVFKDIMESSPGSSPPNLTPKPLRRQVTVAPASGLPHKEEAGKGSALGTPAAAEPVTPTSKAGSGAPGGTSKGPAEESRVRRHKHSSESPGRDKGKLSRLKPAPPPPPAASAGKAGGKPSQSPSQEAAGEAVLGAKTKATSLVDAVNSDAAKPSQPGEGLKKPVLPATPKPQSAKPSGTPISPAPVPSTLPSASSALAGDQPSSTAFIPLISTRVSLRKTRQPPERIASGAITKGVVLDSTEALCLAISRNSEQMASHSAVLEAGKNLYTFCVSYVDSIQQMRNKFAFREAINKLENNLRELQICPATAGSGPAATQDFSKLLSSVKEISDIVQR
# Description: as §1
# in vivo = test: in vivo; design: species or system male CD-1 mice; settings: for clinical symptoms during pharmacokinetic work: mouse
# Experimental: Briefly, each compound was administered through intravenous and oral routes, and plasma samplings were collected from 2 to 24 hours post-injection for analyses by high-performance liquid chromatography and mass spectrometry (Prominence (Degasser DGU-20A5R(C), Serial NO. L20705619752 IX; Liquid Chromatograph LC-30AD Serial NO. L20555611120 AE and L20555611116 AE; Communications Bus Module CBM-20A, Serial NO. L20235635001 CD, Auto SIL-20AC HT, Serial No. L20355305356 AE; Rack changer II, Serial No. L20585300757 SS; AB Sciex Triple Quan 5500 LC/MS/MS instrument (Serial NO. EF20711807)). A HALO 90A, C18 2.7 μm 2.1×50 mm USKL004340 column was used and the mobile phase was 5 or 95% acetonitrile in water with 0.1% formic acid (see Supplemental Material).
# [7] = Protein Binding, Mouse Plasma; assay type: in vitro ADME; settings: read-out: Protein Binding % Bound (converted)
# CSNK1A1 (CK1 alpha 1) = CSNK1A1 (CK1 alpha 1) (Homo sapiens, UniProt P48729); test: Kinase inhibition, CSNK1A1; assay type: biochemical
# Sequence of CSNK1A1 (CK1 alpha 1) (P48729 whole entry): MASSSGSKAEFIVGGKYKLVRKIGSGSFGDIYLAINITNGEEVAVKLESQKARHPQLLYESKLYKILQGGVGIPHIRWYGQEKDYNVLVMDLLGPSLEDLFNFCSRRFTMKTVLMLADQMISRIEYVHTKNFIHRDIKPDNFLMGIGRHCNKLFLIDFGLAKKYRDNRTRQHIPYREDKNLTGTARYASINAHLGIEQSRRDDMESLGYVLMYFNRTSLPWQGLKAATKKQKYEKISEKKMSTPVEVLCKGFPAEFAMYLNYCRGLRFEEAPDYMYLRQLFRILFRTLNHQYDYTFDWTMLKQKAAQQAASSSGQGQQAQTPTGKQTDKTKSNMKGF
# Description: as §1
# LARK2 = LARK2 (Homo sapiens, UniProt Q5S007); test: Kinase inhibition, LARK2; assay type: biochemical; further: ATP Km app 70 µM
# Description: as §1
# Permeability, MDC-MDR1 = assay type: in vitro ADME; settings: MDCK-MDR1
# [8] = Brain Tissue Binding, Mouse; assay type: in vitro ADME; settings: read-out: Brain Tissue Binding % Bound (converted)
# PLK2 = PLK2 (Homo sapiens, UniProt Q9NYY3); test: Kinase inhibition, PLK2; assay type: biochemical; settings: ATP Km app 29.6 μM
# Description: as §1
# CSNK2A2 (CK2 alpha 2) = CSNK2A2 (CK2 alpha 2) (Homo sapiens, UniProt P19784); test: Kinase inhibition, CSNK2A2; assay type: biochemical; settings: ATP Km app 46 μM
# Sequence of CSNK2A2 (CK2 alpha 2) (P19784 whole entry): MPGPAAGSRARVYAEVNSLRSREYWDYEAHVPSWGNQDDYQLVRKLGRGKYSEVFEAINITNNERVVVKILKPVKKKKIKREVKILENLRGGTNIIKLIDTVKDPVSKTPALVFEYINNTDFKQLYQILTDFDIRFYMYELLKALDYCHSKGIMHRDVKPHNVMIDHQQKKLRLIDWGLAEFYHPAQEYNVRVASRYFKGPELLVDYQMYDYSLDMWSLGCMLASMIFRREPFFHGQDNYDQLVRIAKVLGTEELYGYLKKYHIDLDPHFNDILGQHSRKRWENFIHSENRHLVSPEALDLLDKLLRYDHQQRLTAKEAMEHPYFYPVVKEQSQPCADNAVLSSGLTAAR
# Description: as §1
# [9] = target: T1, tubulin purified from porcine brain (Sus scrofa, UniProt P02550+P02554); settings: cited from earlier work
# T1 construct: in vitro assembly of tubulin purified from porcine brain; from tissue; host or cells: porcine brain
# T1 sequence (P02550 whole entry): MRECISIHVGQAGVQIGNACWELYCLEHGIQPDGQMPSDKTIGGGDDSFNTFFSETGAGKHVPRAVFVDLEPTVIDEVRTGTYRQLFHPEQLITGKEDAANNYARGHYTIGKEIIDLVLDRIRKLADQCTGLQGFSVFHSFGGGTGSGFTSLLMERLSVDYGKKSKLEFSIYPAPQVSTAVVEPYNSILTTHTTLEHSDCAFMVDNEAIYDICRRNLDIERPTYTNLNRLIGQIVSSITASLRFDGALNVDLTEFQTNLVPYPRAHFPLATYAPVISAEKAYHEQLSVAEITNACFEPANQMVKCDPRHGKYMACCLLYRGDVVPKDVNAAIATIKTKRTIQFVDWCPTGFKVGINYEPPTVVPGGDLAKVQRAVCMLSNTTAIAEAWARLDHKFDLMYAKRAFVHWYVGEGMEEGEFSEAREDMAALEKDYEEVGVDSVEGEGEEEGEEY
# T1 sequence (P02554 whole entry): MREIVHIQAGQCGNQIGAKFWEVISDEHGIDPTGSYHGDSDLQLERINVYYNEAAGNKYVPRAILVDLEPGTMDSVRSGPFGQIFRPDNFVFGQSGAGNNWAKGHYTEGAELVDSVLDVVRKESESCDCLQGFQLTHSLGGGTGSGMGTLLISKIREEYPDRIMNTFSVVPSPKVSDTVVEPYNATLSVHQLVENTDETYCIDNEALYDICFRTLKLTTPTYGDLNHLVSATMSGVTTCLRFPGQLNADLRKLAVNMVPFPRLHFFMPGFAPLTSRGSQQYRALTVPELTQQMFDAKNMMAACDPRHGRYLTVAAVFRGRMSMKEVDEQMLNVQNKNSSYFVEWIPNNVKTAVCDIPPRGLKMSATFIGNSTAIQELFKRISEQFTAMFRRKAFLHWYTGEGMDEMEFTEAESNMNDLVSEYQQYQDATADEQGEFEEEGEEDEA
# DYRK1A = DYRK1A (Homo sapiens, UniProt Q13627); test: Kinase inhibition, DYRK1A; assay type: biochemical; settings: ATP Km app 99.7 μM
# Description: as §1
# GRK6 = GRK6 (Homo sapiens, UniProt P43250); test: Kinase inhibition, GRK6; assay type: biochemical; settings: ATP Km app 11.7 μM
# Sequence of GRK6 (P43250 whole entry): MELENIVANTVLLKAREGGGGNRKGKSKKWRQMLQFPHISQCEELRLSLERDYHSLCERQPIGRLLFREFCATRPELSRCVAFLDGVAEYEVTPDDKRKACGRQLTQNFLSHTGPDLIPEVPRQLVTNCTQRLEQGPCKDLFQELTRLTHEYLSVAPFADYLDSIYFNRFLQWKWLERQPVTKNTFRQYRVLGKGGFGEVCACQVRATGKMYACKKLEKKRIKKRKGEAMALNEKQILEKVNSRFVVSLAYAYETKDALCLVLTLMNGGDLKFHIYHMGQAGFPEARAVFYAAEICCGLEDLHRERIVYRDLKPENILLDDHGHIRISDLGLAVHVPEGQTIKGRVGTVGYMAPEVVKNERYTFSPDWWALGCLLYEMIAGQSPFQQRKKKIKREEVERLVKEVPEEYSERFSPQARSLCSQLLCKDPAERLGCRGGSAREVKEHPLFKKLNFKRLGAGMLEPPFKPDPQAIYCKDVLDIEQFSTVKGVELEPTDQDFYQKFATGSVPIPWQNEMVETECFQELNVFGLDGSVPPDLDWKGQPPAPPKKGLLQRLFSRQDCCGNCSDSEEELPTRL
# Description: as §1
# GRK5 = GRK5 (Homo sapiens, UniProt P34947); test: Kinase inhibition, GRK5; assay type: biochemical; settings: ATP Km app 3 μM
# Sequence of GRK5 (P34947 whole entry): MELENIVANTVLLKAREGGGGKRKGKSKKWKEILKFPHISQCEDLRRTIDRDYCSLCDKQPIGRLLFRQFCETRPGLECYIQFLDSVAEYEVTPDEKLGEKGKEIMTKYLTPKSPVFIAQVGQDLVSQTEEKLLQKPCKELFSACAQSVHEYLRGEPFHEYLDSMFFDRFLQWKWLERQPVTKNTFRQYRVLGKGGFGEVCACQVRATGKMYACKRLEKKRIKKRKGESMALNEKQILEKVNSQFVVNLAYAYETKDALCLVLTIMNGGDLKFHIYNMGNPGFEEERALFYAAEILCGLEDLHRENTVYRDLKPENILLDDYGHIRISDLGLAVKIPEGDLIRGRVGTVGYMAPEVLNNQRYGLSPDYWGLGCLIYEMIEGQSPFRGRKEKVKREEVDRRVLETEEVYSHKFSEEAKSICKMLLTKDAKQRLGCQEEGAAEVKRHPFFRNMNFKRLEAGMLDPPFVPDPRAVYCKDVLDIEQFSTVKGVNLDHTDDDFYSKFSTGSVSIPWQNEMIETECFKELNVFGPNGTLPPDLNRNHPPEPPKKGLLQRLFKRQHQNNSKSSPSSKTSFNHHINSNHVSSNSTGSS
# Description: as §1
# [10] = test system: microtubules in HeLa cells; settings: cited from earlier work
# [11] = test system: male CD-1 mice infused with preformed α-synuclein fibrils; test: In vivo model of limbic-centered Lewy body disease (fibril infusion in OB/AON, daily tablets for six weeks); design: species or system mouse
compound,measurement,setting,value
COC(=O)Nc1nc2ccc(C(=O)c3cccs3)cc2[nH]1 [nocodazole],acetylated (stable) α-tubulin levels,[1],raised the levels of acetylated (stable) α-tubulin
same,number of viable Hoechst+ cells,"[2]; fibrils, escalating AG161-47 up to 8 μM, nocodazole 1 and 5 nM, 10 days",no statistically significant changes
same,toxicity to primary hippocampal cultures,[2],also found to be toxic
same,appearance of βIII-tubulin+ structures after cold methanol fixation,[3],neurotoxicity and severe beading of axonal microtubules
Cc1ccc(N(C)c2nc(N)nc3[nH]c4cccc(Cl)c4c23)cc1 [AGN5],IC50,FYN; ATP Km app 85 μM,169 nM
same,IC50,GSK3β,3.12 nM
same,fraction unbound,[4],0.0022
same,solubility,Solubility,1.75 µM
same,CLint scaled,[5],602 mL/min/kg
same,half-life,[5],10.1 min
same,CLint scaled,[6],44.7 mL/min/kg
same,half-life,[6],38.9 min
same,IC50,ABL1; ATP Km app 12 μM,26.1 nM
same,Kp,"in vivo; male, CD-1, mouse",5.99
same,Kp uu at 2 h,"in vivo; male, CD-1, mouse",6
same,C0,"in vivo; male, CD-1, mouse, iv, 1 mg/kg",811 ng/mL
same,CIobs,"in vivo; male, CD-1, mouse, iv, 1 mg/kg",49.5 mL/min/kg
same,Vss_obs,"in vivo; male, CD-1, mouse, iv, 1 mg/kg",3.24 L/kg
same,half-life,"in vivo; male, CD-1, mouse, iv, 1 mg/kg",93 min
same,AUC(0-t),"in vivo; male, CD-1, mouse, po, 1 mg/kg",19.2 ng·h/mL
same,Cmax,"in vivo; male, CD-1, mouse, po, 1 mg/kg",14.7 ng/mL and 44 nM
same,F,"in vivo; male, CD-1, mouse, po, 1 mg/kg",6.35%
same,Tmax,"in vivo; male, CD-1, mouse, po, 1 mg/kg",30 min
same,half-life,"in vivo; male, CD-1, mouse, po, 1 mg/kg",46.8 min
same,clinical symptoms during pharmacokinetic work,in vivo,no abnormal clinical symptoms were observed
same,fraction unbound,[7],< 0.0002
same,IC50,CSNK1A1 (CK1 alpha 1),498 nM
same,IC50,LARK2,20 nM
same,Papp A→B,"Permeability, MDC-MDR1",1.74 ×10⁻⁶ cm/s
same,Papp B→A,"Permeability, MDC-MDR1",2.98 ×10⁻⁶ cm/s
same,fraction unbound,[8],0.0004
same,IC50,PLK2,16.7 nM
same,IC50,CSNK2A2 (CK2 alpha 2),> 1110 nM
same,in vitro assembly of porcine brain tubulin,[9],accelerate the temporal kinetics of porcine brain tubulin in vitro assembly
same,IC50,DYRK1A,249 nM
same,IC50,GRK6,64.3 nM
same,IC50,GRK5,> 370 nM
"COc1cc2ncnc(Nc3cccc(Cl)c3)c2cc1OC [Tyrphostin AG1478, reference compound]",IC50,"FYN; representative value, ATP bin 75 μM, read-out: IC50 (nM) of Std inhibitor, FYN",5300 nM
same,IC50,"ABL1; representative value, ATP bin 10 μM, read-out: IC50 (nM) of Std inhibitor, ABL1",326 nM
epothilone,toxicity to primary hippocampal cultures,[2],toxic to primary hippocampal cultures at nanomolar concentrations; also recorded: also found to be toxic
CN(c1ccccc1)c1nc(N)nc2[nH]c3cccc(Cl)c3c12 [AGN11],IC50,FYN; ATP Km app 85 μM,888 nM
same,IC50,GSK3β,8.12 nM
same,fraction unbound,[4],0.004
same,solubility,Solubility,0.71 µM
same,CLint scaled,[5],602 mL/min/kg
same,half-life,[5],10.1 min
same,CLint scaled,[6],45.6 mL/min/kg
same,half-life,[6],38.1 min
same,IC50,ABL1; ATP Km app 12 μM,7.96 nM
same,Kp,"in vivo; male, CD-1, mouse",4.5
same,Kp uu at 2 h,"in vivo; male, CD-1, mouse",4.4
same,C0,"in vivo; male, CD-1, mouse, iv, 1 mg/kg",529 ng/mL
same,CIobs,"in vivo; male, CD-1, mouse, iv, 1 mg/kg",120 mL/min/kg
same,Vss_obs,"in vivo; male, CD-1, mouse, iv, 1 mg/kg",2.41 L/kg
same,half-life,"in vivo; male, CD-1, mouse, iv, 1 mg/kg",19.4 min
same,AUC(0-t),"in vivo; male, CD-1, mouse, po, 1 mg/kg",11 ng·h/mL
same,F,"in vivo; male, CD-1, mouse, po, 1 mg/kg",8.38%
same,Tmax,"in vivo; male, CD-1, mouse, po, 1 mg/kg",25 min
same,half-life,"in vivo; male, CD-1, mouse, po, 1 mg/kg",36 min
same,clinical symptoms during pharmacokinetic work,in vivo,no abnormal clinical symptoms were observed
same,fraction unbound,[7],0.0022
same,fragmented and condensed Hoechst+ nuclei,"[2]; 8 μM, fibril-treated group",reduced fragmented and condensed Hoechst^+ nuclei
same,impact on fragmented/condensed cell counts with nocodazole co-treatment,"[2]; fibril groups, nocodazole 1 and 5 nM",prevented by both concentrations of nocodazole
same,IC50,CSNK1A1 (CK1 alpha 1),30.5 nM
same,IC50,LARK2,7.03 nM
same,Papp A→B,"Permeability, MDC-MDR1",4.97 ×10⁻⁶ cm/s
same,Papp B→A,"Permeability, MDC-MDR1",4.16 ×10⁻⁶ cm/s
same,microtubule effects in HeLa cells,[10],elicited both stabilization and relaxation of microtubules
same,fraction unbound,[8],0.0008
same,correlation between insoluble α-synuclein and locomotor speed,[11]; 5 mg/kg,uncoupled the inverse correlation between insoluble α-synuclein and locomotor speed
same,"hyperphosphorylation (pSer129) of insoluble α-synuclein, piriform cortex and amygdala","[11]; 5 mg/kg, six weeks, listed as AG161-47",modestly lowered; also recorded: reduced the hyperphosphorylation of insoluble α-synuclein
same,effect on Lewy-related pathology,"[11]; 10 mg/kg, six weeks",too high to exert beneficial effects
same,bodyweight,"[11]; daily tablets 5 or 10 mg/kg, six weeks, compared to placebo",No loss of bodyweight
same,"acetylated, detyrosinated, or tyrosinated α-tubulin levels in whole-fraction OB/AON","[11]; immunoblotting, six weeks",virtually no net effect
same,α-synucleinopathic inclusion counts,"[11]; piriform cortex sections, six weeks",does not affect α-synucleinopathic inclusion counts
same,locomotor activity in an open arena,[11]; six weeks after fibril infusions,reduced locomotor activity
same,"other behavior measures (novel odor habituation, Y-maze, marble burying)",[11]; six weeks of daily tablets,no impact
same,IC50,PLK2,> 370 nM
same,IC50,CSNK2A2 (CK2 alpha 2),> 1110 nM
same,in vitro assembly of porcine brain tubulin,[9],accelerated and amplified the net in vitro assembly of tubulin
same,IC50,DYRK1A,8.15 nM
same,IC50,GRK6,614 nM
same,appearance of βIII-tubulin+ structures after cold methanol fixation,[3],did not alter the appearance of βIII-tubulin^+ structures
same,IC50,GRK5,> 1110 nM
"Brc1c(Br)c(Br)c2n[nH]nc2c1Br [TBB, reference compound]",IC50,"CSNK1A1 (CK1 alpha 1); representative value, ATP bin 5 μM, read-out: IC50 (nM) of Std inhibitor, CSNK1A1 (CK1 alpha 1)",12600 nM
